From ChEMBL document CHEMBL5465560, “Selectivity Literature for EUbOPEN Chemogenomic Library” (2024)

Key:
[1] = molecular target: Tyrosine-protein kinase Lck (Homo sapiens, UniProt P06239); assay: Selectivity interaction (KinomeScan (DiscoverX)) EUB0000595a LCK; conditions: at 10 µM
[2] = molecular target: Ribosomal protein S6 kinase alpha-6 (Homo sapiens, UniProt Q9UK32); assay: Selectivity interaction (KinomeScan (DiscoverX)) EUB0000045b RPS6KA6; conditions: at 10 µM
[3] = molecular target: T1, Serine/threonine-protein kinase Nek2 (Homo sapiens) (UniProt P51955); conditions: at 10 µM
T1 sequence (whole entry): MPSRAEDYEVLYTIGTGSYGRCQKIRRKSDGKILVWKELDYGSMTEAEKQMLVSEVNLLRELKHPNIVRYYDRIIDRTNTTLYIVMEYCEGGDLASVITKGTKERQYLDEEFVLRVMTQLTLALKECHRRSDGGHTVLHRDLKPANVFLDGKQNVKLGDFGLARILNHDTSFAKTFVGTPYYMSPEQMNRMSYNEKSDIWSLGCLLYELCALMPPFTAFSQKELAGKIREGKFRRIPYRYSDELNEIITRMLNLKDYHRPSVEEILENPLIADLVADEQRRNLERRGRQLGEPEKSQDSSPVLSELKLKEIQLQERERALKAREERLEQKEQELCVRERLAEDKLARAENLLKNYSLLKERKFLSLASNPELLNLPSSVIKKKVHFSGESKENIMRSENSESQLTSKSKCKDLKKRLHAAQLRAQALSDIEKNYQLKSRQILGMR

[4] = molecular target: T2, ALK tyrosine kinase receptor (Homo sapiens, UniProt Q9UM73); assay: Selectivity interaction (Millipore kinase profiler) EUB0000124b ALK; conditions: at 10 µM
[5] = molecular target: Casein kinase II subunit alpha (Homo sapiens, UniProt P68400); assay: Selectivity interaction (Kinase panel (Enzyme activity assay)) EUB0000612a CSNK2A1
[6] = molecular target: Death-associated protein kinase 2 (Homo sapiens) (UniProt Q9UIK4); assay: Selectivity interaction (ProQinase) EUB0000171b DAPK2
[7] = molecular target: Serine/threonine-protein kinase PLK3 (Homo sapiens, UniProt Q9H4B4); assay: Selectivity interaction (SelectScreen profiling (Invitrogen)) EUB0000607a PLK3; conditions: at 2 µM
[8] = molecular target: T3, Dual specificity mitogen-activated protein kinase kinase 3 (Homo sapiens) (UniProt P46734); assay: Selectivity interaction (KinomeScan (DiscoverX)) EUB0000607a MAP2K3; conditions: at 10 µM
T3 sequence (whole entry): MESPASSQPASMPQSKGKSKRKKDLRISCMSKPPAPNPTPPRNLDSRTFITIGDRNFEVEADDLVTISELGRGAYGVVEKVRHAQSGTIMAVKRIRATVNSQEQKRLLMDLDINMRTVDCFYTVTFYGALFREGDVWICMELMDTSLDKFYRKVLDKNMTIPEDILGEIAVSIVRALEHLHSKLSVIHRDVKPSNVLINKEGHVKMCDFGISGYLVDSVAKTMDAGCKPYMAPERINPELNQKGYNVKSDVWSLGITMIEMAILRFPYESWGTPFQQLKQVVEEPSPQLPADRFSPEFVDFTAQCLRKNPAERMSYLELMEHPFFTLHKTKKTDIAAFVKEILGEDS

[9] = molecular target: T2, ALK tyrosine kinase receptor; assay: Selectivity interaction (KinomeScan (DiscoverX)) EUB0000618a ALK; conditions: at 10 µM
[10] = molecular target: G protein-coupled receptor kinase 5 (Homo sapiens, UniProt P34947); assay: Selectivity interaction (Kinase panel (Invitrogen)) EUB0000639a GRK5; conditions: at 200 nM
[11] = molecular target: Serine/threonine-protein kinase Nek6 (Homo sapiens) (UniProt Q9HC98); assay: Selectivity interaction (KinomeScan (DiscoverX)) EUB0000655a NEK6; conditions: at 10 µM
[12] = molecular target: Serine/threonine-protein kinase pim-1 (Homo sapiens, UniProt P11309); assay: Selectivity interaction (KinomeScan (DiscoverX)) EUB0000092b PIM1; conditions: at 10 µM
[13] = molecular target: T4, Serine/threonine-protein kinase DCLK1 (Homo sapiens) (UniProt O15075); assay: Selectivity interaction (KinomeScan (DiscoverX)) EUB0000092b DCLK1; conditions: at 10 µM
T4 sequence (whole entry): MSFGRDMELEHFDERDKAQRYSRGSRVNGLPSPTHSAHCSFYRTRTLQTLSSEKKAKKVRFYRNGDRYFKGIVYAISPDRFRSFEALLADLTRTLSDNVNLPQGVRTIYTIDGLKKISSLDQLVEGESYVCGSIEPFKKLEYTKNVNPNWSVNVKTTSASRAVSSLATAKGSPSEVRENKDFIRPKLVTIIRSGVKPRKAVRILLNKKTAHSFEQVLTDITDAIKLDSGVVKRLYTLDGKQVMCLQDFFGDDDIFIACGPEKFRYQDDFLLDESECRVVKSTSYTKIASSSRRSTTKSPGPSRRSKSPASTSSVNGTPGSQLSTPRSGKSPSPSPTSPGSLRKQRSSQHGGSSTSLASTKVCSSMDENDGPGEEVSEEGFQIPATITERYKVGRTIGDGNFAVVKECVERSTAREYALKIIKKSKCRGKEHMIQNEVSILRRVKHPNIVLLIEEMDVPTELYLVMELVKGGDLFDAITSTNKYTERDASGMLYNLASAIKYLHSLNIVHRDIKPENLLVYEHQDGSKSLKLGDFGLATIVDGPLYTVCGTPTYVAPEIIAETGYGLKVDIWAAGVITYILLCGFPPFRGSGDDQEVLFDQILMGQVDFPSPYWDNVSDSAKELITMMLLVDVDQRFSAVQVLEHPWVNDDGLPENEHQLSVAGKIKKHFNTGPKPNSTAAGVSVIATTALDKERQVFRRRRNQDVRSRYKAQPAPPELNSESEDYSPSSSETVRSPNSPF

T2 sequence (Q9UM73 19-1620 limits assumed): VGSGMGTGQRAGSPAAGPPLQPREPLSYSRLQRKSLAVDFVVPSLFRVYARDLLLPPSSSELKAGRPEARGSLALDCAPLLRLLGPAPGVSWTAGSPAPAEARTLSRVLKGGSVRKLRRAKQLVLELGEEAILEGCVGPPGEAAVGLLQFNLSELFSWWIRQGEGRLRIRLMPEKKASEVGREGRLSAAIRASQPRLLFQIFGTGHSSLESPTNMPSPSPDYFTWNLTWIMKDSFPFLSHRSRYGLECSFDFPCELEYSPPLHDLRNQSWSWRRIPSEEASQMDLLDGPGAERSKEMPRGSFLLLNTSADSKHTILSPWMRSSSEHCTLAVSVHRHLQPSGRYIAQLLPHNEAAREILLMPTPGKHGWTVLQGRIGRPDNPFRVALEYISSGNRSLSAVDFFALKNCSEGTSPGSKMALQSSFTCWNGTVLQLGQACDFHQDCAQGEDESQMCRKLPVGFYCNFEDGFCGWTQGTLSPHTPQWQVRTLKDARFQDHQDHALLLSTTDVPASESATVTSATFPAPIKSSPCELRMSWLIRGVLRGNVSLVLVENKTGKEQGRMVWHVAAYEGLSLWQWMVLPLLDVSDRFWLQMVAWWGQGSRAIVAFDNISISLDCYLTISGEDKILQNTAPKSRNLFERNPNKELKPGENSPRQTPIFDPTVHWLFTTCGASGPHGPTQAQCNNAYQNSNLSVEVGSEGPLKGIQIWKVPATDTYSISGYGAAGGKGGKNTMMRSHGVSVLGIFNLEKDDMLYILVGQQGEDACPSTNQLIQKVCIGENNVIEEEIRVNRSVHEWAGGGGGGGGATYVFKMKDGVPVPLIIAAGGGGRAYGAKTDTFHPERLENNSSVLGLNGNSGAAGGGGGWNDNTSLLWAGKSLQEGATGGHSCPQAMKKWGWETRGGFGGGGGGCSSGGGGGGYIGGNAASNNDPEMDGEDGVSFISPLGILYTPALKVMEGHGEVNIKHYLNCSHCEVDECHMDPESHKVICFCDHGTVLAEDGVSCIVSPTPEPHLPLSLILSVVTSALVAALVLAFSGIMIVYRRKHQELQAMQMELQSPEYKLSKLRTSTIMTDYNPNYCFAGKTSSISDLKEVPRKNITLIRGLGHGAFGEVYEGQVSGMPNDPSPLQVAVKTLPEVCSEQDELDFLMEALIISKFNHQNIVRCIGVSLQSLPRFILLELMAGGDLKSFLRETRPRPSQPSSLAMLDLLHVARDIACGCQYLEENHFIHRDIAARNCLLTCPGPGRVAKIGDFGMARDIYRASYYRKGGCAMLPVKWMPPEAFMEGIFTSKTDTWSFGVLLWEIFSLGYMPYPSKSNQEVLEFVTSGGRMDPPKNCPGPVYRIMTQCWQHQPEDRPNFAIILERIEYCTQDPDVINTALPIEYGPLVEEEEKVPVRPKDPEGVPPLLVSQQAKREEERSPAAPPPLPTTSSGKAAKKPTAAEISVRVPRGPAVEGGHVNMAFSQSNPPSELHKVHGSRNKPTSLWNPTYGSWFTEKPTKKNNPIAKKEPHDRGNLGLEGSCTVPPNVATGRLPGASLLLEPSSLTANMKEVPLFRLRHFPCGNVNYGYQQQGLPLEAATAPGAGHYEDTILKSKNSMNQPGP
Sequence of Death-associated protein kinase 2 (Homo sapiens) (Q9UIK4 whole entry, looked up): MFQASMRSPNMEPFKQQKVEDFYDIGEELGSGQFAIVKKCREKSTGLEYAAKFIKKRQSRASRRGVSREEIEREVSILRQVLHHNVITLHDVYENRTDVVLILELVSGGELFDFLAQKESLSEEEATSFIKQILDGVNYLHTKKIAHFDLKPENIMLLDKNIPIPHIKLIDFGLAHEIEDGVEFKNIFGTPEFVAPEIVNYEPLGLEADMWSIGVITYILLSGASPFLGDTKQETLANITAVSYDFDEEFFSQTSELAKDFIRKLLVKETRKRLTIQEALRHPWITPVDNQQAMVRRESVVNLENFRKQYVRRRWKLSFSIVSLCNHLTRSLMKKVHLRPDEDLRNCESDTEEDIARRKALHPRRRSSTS
Sequence of Ribosomal protein S6 kinase alpha-6 (Q9UK32 whole entry): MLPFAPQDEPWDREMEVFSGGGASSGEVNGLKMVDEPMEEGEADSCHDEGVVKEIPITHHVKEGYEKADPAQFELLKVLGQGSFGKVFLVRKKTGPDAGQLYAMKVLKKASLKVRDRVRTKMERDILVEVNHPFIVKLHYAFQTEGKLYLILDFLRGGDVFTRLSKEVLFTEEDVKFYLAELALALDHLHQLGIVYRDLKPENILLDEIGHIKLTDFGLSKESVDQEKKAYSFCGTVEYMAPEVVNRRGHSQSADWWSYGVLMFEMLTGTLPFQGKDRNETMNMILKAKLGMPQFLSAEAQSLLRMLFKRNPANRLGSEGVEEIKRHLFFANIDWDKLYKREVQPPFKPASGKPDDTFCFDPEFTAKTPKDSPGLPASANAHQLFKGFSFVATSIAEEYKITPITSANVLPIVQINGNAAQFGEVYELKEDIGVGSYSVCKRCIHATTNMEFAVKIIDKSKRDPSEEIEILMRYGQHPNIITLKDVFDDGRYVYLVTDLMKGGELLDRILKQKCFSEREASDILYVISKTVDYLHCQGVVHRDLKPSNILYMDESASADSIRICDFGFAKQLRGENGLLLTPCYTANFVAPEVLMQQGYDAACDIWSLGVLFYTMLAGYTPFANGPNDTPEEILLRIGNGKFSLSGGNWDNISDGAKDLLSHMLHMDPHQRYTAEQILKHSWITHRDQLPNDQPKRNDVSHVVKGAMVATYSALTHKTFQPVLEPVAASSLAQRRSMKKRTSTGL
Sequence of G protein-coupled receptor kinase 5 (P34947 whole entry, looked up): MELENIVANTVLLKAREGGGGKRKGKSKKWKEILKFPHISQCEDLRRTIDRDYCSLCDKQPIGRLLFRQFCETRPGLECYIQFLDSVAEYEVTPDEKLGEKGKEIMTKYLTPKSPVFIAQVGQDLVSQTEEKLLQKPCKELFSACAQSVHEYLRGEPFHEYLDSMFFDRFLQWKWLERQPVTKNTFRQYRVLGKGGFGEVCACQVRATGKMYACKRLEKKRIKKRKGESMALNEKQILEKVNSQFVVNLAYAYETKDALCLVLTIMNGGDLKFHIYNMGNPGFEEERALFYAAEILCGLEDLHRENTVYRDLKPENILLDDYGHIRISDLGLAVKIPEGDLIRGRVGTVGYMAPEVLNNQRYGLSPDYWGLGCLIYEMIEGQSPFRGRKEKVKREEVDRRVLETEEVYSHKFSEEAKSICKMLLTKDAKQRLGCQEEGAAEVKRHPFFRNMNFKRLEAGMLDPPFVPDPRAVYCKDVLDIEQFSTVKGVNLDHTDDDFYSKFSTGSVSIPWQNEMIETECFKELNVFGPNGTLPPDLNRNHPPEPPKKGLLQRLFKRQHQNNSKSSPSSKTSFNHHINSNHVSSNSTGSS
Sequence of Casein kinase II subunit alpha (P68400 whole entry): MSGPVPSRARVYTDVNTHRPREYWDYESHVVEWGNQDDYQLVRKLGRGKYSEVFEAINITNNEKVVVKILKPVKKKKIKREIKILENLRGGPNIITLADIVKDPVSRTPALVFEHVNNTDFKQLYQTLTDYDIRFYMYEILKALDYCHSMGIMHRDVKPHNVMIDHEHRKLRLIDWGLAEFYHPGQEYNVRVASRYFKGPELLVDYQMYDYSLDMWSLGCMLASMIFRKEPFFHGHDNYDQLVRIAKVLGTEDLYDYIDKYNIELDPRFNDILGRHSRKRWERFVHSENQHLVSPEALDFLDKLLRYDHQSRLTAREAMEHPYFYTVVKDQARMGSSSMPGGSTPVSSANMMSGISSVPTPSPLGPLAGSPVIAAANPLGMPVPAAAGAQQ
Sequence of Serine/threonine-protein kinase pim-1 (P11309 whole entry, looked up): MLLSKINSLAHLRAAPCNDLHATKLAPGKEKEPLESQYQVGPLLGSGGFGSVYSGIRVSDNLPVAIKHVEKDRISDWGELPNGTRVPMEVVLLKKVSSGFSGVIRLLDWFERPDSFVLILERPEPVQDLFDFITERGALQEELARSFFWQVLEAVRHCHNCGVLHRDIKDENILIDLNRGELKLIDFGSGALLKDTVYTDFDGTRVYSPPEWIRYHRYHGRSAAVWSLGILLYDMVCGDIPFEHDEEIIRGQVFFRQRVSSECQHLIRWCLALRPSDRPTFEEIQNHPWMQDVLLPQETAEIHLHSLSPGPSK
Sequence of Serine/threonine-protein kinase Nek6 (Homo sapiens) (Q9HC98 whole entry): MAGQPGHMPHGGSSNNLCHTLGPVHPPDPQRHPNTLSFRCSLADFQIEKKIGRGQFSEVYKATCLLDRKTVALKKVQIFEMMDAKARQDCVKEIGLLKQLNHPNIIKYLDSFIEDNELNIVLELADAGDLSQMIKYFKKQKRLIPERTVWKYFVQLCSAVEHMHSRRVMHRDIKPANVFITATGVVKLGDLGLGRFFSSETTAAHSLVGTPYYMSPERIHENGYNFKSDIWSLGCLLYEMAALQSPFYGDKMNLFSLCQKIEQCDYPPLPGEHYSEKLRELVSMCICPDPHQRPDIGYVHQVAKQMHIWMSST
Sequence of Tyrosine-protein kinase Lck (P06239 2-509 limits assumed): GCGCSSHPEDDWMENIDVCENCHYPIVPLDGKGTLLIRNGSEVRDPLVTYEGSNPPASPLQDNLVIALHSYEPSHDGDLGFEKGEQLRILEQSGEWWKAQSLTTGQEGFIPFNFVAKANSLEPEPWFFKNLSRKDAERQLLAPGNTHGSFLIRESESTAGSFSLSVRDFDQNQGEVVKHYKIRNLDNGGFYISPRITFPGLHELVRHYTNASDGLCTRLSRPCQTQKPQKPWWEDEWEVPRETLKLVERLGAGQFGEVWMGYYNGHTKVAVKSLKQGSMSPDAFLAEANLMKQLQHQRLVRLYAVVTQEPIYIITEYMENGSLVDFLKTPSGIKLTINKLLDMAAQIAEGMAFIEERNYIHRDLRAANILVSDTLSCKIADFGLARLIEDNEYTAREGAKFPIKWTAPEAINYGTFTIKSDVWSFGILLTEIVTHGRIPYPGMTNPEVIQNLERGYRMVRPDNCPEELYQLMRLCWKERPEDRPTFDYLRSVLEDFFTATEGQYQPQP

COCC(=O)NC/C=C/c1ccc2ncnc(Nc3ccc(Oc4ccc(C)nc4)c(C)c3)c2c1 [CP-724714]
% of control [1]: 59%

C=CC(=O)Nc1cc(-n2c(=O)ccc3cnc4ccc(-c5ccc(NS(C)(=O)=O)cc5)cc4c32)ccc1C
% of control [2]: 88%

Cc1cc([C@@H](C)Nc2ccccc2C(=O)O)c2nc(N3CCOCC3)cc(=O)n2c1 [AZD-6482]
% of control [3]: 71%

CC(=O)Nc1cccc(-n2c(=O)n(C3CC3)c(=O)c3c(Nc4ccc(I)cc4F)n(C)c(=O)c(C)c32)c1
% of control [4]: 166%

CCc1cccc(CC)c1NC(=O)c1nn(C)c2c1CCc1cnc(Nc3ccc(C(=O)NC4CCN(C)CC4)cc3OC(F)(F)F)nc1-2
IC50 [5]: 5.7 µM

C=CC(=O)Nc1cccc(C(=O)Nc2ccc(Nc3cc(-c4[nH]c(SC)nc4C)ccn3)cc2)c1
% of control ([6]; at 1 µM): 92% | % of control ([6]; at 5 µM): 78%

CNC(=O)Nc1ccc(-c2nc(N3CC4CCC(C3)O4)c3cnn(C4CCC5(CC4)OCCO5)c3n2)cc1
% of inhibition [7]: -11% | % of control [8]: 89%

O[C@H]1CC[C@H](Nc2ncc3nc(Nc4c(F)cc(F)cc4F)n([C@H]4CCOC4)c3n2)CC1
% of control [9]: 100%

CC[C@@H]1[C@H](F)C(=O)N[C@@H]1COc1nccc2cc(C(N)=O)c(OC)cc12 [ZIMLOVISERTIB]
% of inhibition [10]: 0.578%

CN(C)CCOc1ccc(-c2nc(-c3ccncc3)c(-c3ccc4c(c3)CC/C4=N\O)[nH]2)cc1
% of control [11]: 100%

CCC(=O)N1CCN(c2ccc(-n3c(=O)ccc4cnc5ccc(-c6cnc7ccccc7c6)cc5c43)cc2C(F)(F)F)CC1
% of control [12]: 80% | % of control [13]: 100%
